Assay results: patent publication US20140283583A1, “SYSTEM FOR PIPELINE DRYING AND FREEZING POINT SUPPRESSION” (WEATHERFORD/LAMB, INC., priority 2007, published 2014)

Key:
[1] = FIG. 1, compared with methanol and ethylene glycol
Mysidopsis bahia = conditions: 800 mg/L
[2] = 50% w/w solution in water
Menidia beryllina = conditions: 800 mg/L

Structure (SMILES): O=C[O-].[K+] [potassium formate]
- methane hydrate suppression [1]: between ethylene glycol and methanol
- larval survival and growth toxicity testing (normality tests) (Mysidopsis bahia): passed the normality tests
- freezing point [2]: around −60 °C
- larval survival and growth toxicity testing (normality tests) (Menidia beryllina): passed the normality tests
